Test results taken from US7335814B2, “Transgenic cells expressing glucosyltransferase nucleic acids” (The University of York, priority 2000, dated 2008).

How the values were obtained:
recombinant GTase A911 [1] = target: T1, recombinant GTase A911 (Arabidopsis thaliana, UniProt O22182); assay: Specific activity of recombinant GTase producing glucose ester against lignin precursors (HPLC); format: biochemical; design: made in house; host or cells: E. coli; conditions: 0.5 ml of potential substrates, 5 mM UDPG, 0.2 μg GTase, 200 μl, 20° C., 30 min
T1 sequence (O22182 1-456): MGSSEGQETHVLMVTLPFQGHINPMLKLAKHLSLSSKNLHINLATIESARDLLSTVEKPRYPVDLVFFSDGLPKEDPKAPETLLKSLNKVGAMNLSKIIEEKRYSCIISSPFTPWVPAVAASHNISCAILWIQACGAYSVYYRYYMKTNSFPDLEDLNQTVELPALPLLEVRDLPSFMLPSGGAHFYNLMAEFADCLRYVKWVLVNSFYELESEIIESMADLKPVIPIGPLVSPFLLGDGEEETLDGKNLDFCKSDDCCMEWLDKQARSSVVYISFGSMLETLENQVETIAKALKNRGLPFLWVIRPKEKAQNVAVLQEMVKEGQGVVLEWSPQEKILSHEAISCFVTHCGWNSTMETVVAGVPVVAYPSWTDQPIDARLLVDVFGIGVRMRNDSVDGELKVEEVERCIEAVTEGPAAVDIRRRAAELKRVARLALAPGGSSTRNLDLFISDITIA

recombinant GTase A43 = target: T2, recombinant GTase A43 (Arabidopsis thaliana, UniProt O23402); assay: as above; format: biochemical; conditions: 0.5 ml of potential substrates, 5 mM UDPG, 0.2 μg GTase, 200 μl, 20° C., 30 min
T2 construct: made in house; host or cells: E. coli

recombinant GTase A062 = target: T3, recombinant GTase A062 (Arabidopsis thaliana, UniProt Q9LR44); assay: as above; format: biochemical; conditions: 0.5 ml of potential substrates, 5 mM UDPG, 0.2 μg GTase, 200 μl, 20° C., 30 min
T3 construct: made in house; host or cells: E. coli
T3 sequence (Q9LR44 1-469): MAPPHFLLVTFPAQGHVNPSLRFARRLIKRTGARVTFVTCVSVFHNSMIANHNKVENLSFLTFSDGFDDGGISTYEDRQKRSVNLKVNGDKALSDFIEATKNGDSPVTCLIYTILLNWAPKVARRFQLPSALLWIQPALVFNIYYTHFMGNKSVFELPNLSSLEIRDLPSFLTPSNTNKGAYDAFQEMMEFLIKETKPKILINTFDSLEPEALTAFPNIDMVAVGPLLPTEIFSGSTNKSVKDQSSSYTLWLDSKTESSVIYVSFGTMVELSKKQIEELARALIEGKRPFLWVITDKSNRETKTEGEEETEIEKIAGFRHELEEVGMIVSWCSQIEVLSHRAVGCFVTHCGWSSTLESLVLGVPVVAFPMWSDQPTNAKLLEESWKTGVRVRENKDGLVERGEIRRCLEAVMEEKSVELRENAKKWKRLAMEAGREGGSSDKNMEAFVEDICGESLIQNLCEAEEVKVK

recombinant GTase A119 = target: T4, recombinant GTase A119 (Arabidopsis thaliana, UniProt Q9LVR1); assay: Kinetic studies (Michaelis-Menten) on recombinant GTase producing O-glucosides; format: biochemical; conditions: O-glucoside formation
T4 construct: made in house; host or cells: E. coli
T4 sequence (Q9LVR1 1-481): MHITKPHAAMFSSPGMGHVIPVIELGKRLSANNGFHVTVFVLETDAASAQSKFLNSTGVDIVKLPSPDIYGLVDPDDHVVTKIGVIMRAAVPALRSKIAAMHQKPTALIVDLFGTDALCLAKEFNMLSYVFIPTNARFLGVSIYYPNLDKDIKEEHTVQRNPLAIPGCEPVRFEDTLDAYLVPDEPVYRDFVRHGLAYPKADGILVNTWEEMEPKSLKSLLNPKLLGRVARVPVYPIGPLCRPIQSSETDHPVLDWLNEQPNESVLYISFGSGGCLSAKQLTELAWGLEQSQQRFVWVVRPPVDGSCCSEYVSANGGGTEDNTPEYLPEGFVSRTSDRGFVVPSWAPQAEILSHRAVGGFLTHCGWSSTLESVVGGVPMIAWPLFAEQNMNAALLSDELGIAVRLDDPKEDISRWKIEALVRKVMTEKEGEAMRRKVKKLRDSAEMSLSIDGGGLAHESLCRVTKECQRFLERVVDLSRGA

recombinant GTase A233 = target: T5, recombinant GTase A233 (Arabidopsis thaliana, UniProt Q8W491); assay: Specific activity of recombinant GTase producing O-glucosides against lignin precursors (HPLC); format: biochemical; conditions: 30° C.; ND = not detected
T5 construct: made in house; host or cells: E. coli

recombinant GTase A407 = target: T6, recombinant GTase A407 (Arabidopsis thaliana, UniProt O81498); assay: as above; format: biochemical; conditions: 30° C.; ND = not detected
T6 construct: made in house; host or cells: E. coli
T6 sequence (O81498 1-481): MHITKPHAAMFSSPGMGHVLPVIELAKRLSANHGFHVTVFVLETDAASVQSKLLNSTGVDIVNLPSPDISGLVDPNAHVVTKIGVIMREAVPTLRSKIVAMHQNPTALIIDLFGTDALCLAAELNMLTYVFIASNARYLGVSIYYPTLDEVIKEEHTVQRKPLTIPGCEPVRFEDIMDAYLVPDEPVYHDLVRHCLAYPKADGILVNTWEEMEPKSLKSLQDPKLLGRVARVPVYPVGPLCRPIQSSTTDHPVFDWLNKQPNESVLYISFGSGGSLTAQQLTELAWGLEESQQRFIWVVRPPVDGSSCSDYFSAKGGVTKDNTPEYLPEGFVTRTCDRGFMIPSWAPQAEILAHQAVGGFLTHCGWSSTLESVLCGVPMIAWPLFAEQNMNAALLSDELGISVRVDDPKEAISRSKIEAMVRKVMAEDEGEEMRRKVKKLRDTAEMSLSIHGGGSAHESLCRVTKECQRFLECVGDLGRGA

recombinant GTase A911 [2] = target: T1, recombinant GTase A911; assay: Kinetic studies (Michaelis-Menten) on recombinant GTase producing glucose esters; conditions: glucose ester formation
recombinant GTase A41 = target: T7, recombinant GTase A41 (Arabidopsis thaliana, UniProt Q5XF20); assay: as above; format: biochemical; conditions: glucose ester formation
T7 construct: made in house; host or cells: E. coli
T7 sequence (Q5XF20 7-490): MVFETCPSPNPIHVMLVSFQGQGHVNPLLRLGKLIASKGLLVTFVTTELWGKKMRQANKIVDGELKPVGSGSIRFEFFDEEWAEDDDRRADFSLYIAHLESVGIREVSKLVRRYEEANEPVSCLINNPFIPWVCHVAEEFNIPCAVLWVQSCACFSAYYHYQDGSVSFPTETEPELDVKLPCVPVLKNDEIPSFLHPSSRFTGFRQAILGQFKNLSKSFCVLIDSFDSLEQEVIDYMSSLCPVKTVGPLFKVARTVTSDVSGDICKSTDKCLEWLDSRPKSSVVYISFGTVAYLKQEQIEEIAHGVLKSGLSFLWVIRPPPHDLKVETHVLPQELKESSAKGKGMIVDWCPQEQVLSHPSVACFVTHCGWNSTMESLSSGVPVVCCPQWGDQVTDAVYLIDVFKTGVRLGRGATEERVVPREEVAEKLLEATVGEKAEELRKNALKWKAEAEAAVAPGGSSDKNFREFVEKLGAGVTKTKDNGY

Row | Structure (SMILES) | Specific activity of A911 (substrate converted to glucose ester) (recombinant GTase A911 [1]) [nkat/mg] | Specific activity of A43 (substrate converted to glucose ester) (recombinant GTase A43) [nkat/mg] | Specific activity of A062 (substrate converted to glucose ester) (recombinant GTase A062) [nkat/mg] | Vmax (A119) (recombinant GTase A119) [nkat/mg] | Specific activity of A233 (substrate converted to 4-O-glucoside) (recombinant GTase A233) [nkat/mg] | Specific activity of A407 (substrate converted to 4-O-glucoside) (recombinant GTase A407) [nkat/mg] | Vmax (A911) (recombinant GTase A911 [2]) [nkat/mg] | Vmax (A41) (recombinant GTase A41) [nkat/mg]
1 | COc1cc(/C=C/C(=O)O)ccc1O [Ferulic acid, ferulic acid] | 2.88 | 0.04 | 0.08 | 18.87 | 0.37 | 0.25 | 6.91 | 11.35
2 | O=C(O)/C=C/c1ccc(O)cc1 [p-coumaric acid] | 4.31 | 0.03 | 2.54 |  | 0.09 | 0.01 |  | 
